Experiments:
[1] = test system: intestinal epithelial cell lines T84 monolayers; assay: Effect of LC-PUFA on basal (spontaneous) barrier integrity: TER and 4 kD FITC dextran flux in T84 monolayers; assay type: cell-based, human; details: for effect on epithelial resistance (in words) / effect on molecular flux (in words): 100 μM, 72 hr, Table 1; for basal barrier integrity (TER), FIG. 1 (in words): time and dose (10 μM and 100 μM) dependent
Experimental: (§1) Monolayers (MC) of intestinal epithelial cell lines T84 (American Type Culture Collection (ATTC), Manassas, USA) were cultured on transwell filters (Corning, Costar B V, The Netherlands) allowing both mucosal and serosal sampling and stimulation of human intestinal epithelial cells. Two weeks post confluency the monolayers were incubated in the luminal compartment with polyunsaturated fatty acids ARA (arachidonic acid; 5,8,11,14-eicosatetraenoic acid), DHA (cis-4,7,10,13,16,19 docosahexaenoic acid), EPA (eicosapentaenoic acid) or control palmitic (C 16:0) acid (Palm) (Sigma, St. Louis, USA). The latter procedure was chosen to mimic the in vivo administration route of the dietary compounds. Cells were incubated with ARA, DHA, EPA, GLA or palmitic acid for 0, 24, 48 and 72 hr at different concentrations (10 μM and 100 μM). Experiments were performed to evaluate basal barrier integrity. The epithelial barrier function was determined by measuring the transepithelial resistance (TER, Ω.cm^2) was measured by epithelial volt-ohm meter (EVOM; World Precision Instruments, Germany) and permeability for 4 kD FITC dextran (paracellular permeability marker, Sigma, USA). Resistance (. Epithelial permeability for 4 kDa FITC-dextran was determined as follows. Prior to dextran fluxes the medium was refreshed with culture medium without phenol red for one hour followed by addition of 5 μl (stock 100 mg/ml) 4 kDa FITC-dextran to the lumenal compartment. After 30 min incubation 100 μl sample was collected from the serosal compartment and the fluorescent signal measured at excitation wavelength 485 nm and emission 520 nm (FLUOstar Galaxy®, BMG Labtechnologies, USA). FITC-dextran fluxes were calculated as pmol FITC-dextran/cm^2/h. Statistical analyses were performed using the ANOVA (SPSS version 10).

[2] = test system: intestinal epithelial cell lines T84 monolayers incubated with IL-4; assay: Effect of LC-PUFA on IL-4 mediated barrier disruption: TER and flux in T84 monolayers; assay type: cell-based, human; details: for Permeability (IL-4 Flux) / Resistance (IL-4 TER) / effect on IL-4 mediated barrier disruption (flux), in words: 100 μM; for Permeability (IL-4 Flux) / Resistance (IL-4 TER): 48 hr pre-incubation then 48 hr co-incubation with IL-4 2 ng/ml; for effect on IL-4 mediated barrier disruption (flux), in words: Table 2; for IL-4 mediated barrier destruction (Flux), FIG. 2 (in words): time and dose (10 μM and 100 μM) dependent, 4 kD dextran flux
Experimental: as §1
Monolayers (MC) of intestinal epithelial cell lines T84 (ATCC, USA) were cultured on transwell filters (Corning, Costar B V, The Netherlands) allowing both mucosal and serosal sampling and stimulation of human intestinal epithelial cells. Two weeks post confluency the monolayers were incubated in the presence of IL-4 (2 ng/ml, serosal compartment, Sigma, USA ) with or without polyunsaturated fatty acids ARA, DHA, GLA, EPA, or control palmitic acid (10 μM or 100 μM, mucosal compartment, Sigma, St. Louis, USA). Cells were pre-incubated with GLA, ARA, DHA, EPA, or palmitic acid for 48 hr prior to the IL-4 incubation. The co-incubation of PUFA's and palmetic acid with IL-4 was continued for another 48 hr; while culture medium and additives were changed every 24 hr. The epithelial barrier function was determined by measuring the transepithelial resistance (TER) and permeability as described in example 1. Statistical evaluation was performed as described in example 1.

[3] = test system: MUC-2 expression in intestinal epithelial T84 cells; details: 24 h, 0.025-4.0 mM, MC T84 and CC T84, compared to propionate and butyrate

| SMILES | effect on epithelial resistance (in words) [1] | effect on molecular flux (in words) [1] | basal barrier integrity (TER), FIG. 1 (in words) [1] | Permeability (IL-4 Flux) [2] | Resistance (IL-4 TER) [2] | effect on IL-4 mediated barrier disruption (flux), in words [2] | IL-4 mediated barrier destruction (Flux), FIG. 2 (in words) [2] | stimulating MUC-2 expression (mucus production), FIG. 4 (in words) [3] |
| --- | --- | --- | --- | --- | --- | --- | --- | --- |
| CCCCCC=CCC=CCC=CCC=CCCCC(=O)O [ARA, 5,8,11,14-eicosatetraenoic acid] | improve epithelial resistance | reduce the molecular flux | increased resistance | 273 ↓ pmol FITC-dextran/cm^2/h | 337 ↑ Ω.cm^2 | inhibit the increased flux caused by IL-4 | decreased 4 kD dextran flux |  |
| CCC=CCC=CCC=CCC=CCC=CC/C=C\CCC(=O)O [DHA, cis-4,7,10,13,16,19 docosahexaenoic acid] | improve epithelial resistance | reduce the molecular flux | increased resistance | 304 ↓ pmol FITC-dextran/cm^2/h | 328 ↑ Ω.cm^2 | inhibit the increased flux caused by IL-4 | decreased 4 kD dextran flux |  |
| CC/C=C\C/C=C\C/C=C\C/C=C\C/C=C\CCCC(=O)O [EPA, eicosapentaenoic acid] |  |  |  | 236 ↓ pmol FITC-dextran/cm^2/h | 375 ↑ Ω.cm^2 |  |  |  |
| CCCCC/C=C\C/C=C\C/C=C\CCCCC(=O)O [GLA, gamma linolenic acid] | improve epithelial resistance | reduce the molecular flux | increased resistance | 360 ↓ pmol FITC-dextran/cm^2/h | 331 ↑ Ω.cm^2 | inhibit the increased flux caused by IL-4 | decreased 4 kD dextran flux |  |
| CCCCCCCCCCCCCCCC(=O)O [Palmitic acid, palmitic acid, reference compound] | opposite effects | opposite effects |  |  |  | detrimental effect |  |  |
| CC(=O)O [acetate] |  |  |  |  |  |  |  | more potent |

From US20080015166A1, “Barrier Integrity in Hiv Patients” (N.V. Nutricia, priority 2004, published 2008)
